Experimental data published in US8017611B2, “Pyridine and pyrazine derivatives -083” (AstraZeneca AB, priority 2007, dated 2011).
Marks after values point to notes of the source that are not given here.

biological target: T1, recombinant Axl tyrosine kinase (Homo sapiens, UniProt P30530); test: In vitro Axl kinase assay (AlphaScreen), Test (a); type: biochemical; conditions: test compound at 1 μM; first value quoted
T1 construct: encompassing amino acids 473 to 894 of Axl; GST (N); made in house; host or cells: SF126 insect cells
T1 sequence (P30530 473-894): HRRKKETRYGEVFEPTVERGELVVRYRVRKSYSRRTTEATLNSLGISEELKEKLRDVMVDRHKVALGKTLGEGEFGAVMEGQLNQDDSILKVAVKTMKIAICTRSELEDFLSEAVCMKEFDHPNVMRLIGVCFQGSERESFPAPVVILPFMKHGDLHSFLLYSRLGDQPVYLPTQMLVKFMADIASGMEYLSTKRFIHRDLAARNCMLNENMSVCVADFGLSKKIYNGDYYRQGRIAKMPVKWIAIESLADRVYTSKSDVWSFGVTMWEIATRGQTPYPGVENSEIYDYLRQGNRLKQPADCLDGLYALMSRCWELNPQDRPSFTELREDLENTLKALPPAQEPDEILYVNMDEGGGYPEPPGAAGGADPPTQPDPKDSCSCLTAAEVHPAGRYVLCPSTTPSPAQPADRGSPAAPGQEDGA
Description: Test compounds were prepared as 10 mM stock solutions in dimethylsulphoxide (DMSO) and diluted in DMSO as required. Aliquots (120 nl) of compound dilutions were filled into the wells of a Greiner 384-well low volume (LV) white polystyrene plate (Greiner Bio-one) using acoustic dispensing (Labcyte Echo 550). A 10 μl mixture of recombinant purified Axl enzyme, biotinylated peptide substrate (Biotin poly-GAT; CisBio, Catalogue No. 61GATBLB), 0.2 μM adenosine triphosphate (ATP) and a buffer solution [comprising 20 mM Tris-HCl pH 7.5 buffer, 0.01% v/v Tween, 5 mM dithiothreitol (DTT) and 10 mM manganese chloride] was incubated with the compounds at room temperature for 20 minutes.
Control wells that produced a minimum signal corresponding to 100% inhibited enzyme were created by adding 10 μM of Staurosporine.
The percentage kinase inhibition value is the percentage of Axl tyrosine kinase activity inhibited by the test compound at a concentration of 1 μM.

First: C[C@@H]1CN(CCNC(=O)c2ccc(-c3cnc(N)c(-c4nc5cccnc5o4)c3)cc2)C[C@H](C)O1 [Example 45A.45]
Second: Nc1ncc(-c2ccc(C(=O)NCCN3CCC(F)(F)C3)cc2)cc1-c1nc2cccnc2o1 [Example 45A.37]
The “% Axl tyrosine kinase inhibition at 1 μM concentration” value (“% Axl tyrosine kinase inhibition” below) of the first is higher: 93.8% for the first, 92.2% for the second.

First: CNC(=O)CN1CCC(n2cc(-c3cnc(N)c(-c4nc5ncccc5o4)c3)cn2)CC1 [Example 53.2]
Second: CC(=O)NCC(=O)N1CCC(n2cc(-c3cnc(N)c(-c4nc5ncccc5o4)c3)cn2)CC1 [Example 59.3]
The “% Axl tyrosine kinase inhibition” value of the first is lower: 97.8% for the first, 98.9% for the second.

First: Nc1ncc(-c2ccc(C(=O)N3CCC(O)CC3)cc2)cc1-c1nc2ccncc2o1 [Example 11A.2]
Second: CN(C)CCC1CCN(C(=O)c2ccc(-c3cnc(N)c(-c4nc5cccnc5o4)c3)cc2)CC1 [Example 45A.14]
The “% Axl tyrosine kinase inhibition” value of the first is higher: 97.5% for the first, 89.9% for the second.

First: COc1cc(-c2cnc(N)c(-c3nc4ncccc4o3)c2)ccc1OC1CCN(C)CC1 [Example 43C.11]
Second: COc1cc(-c2cnc(N)c(-c3nc4ncccc4o3)c2)ccc1OC1CCCNCC1 (stereo not drawn) [Example 43C.38]
The “% Axl tyrosine kinase inhibition” value of the first is lower: 98.9% for the first, 99.8% for the second.

First: Nc1ncc(-c2cnn(CCCN3CCCC3)c2)cc1-c1nc2ccccc2o1 [Example 27.2]
Second: Nc1ncc(-c2cnn(CCN3CCC3)c2)cc1-c1nc2ccccc2o1 [Example 31.10]
The “% Axl tyrosine kinase inhibition” value of the first is higher: 99.9% for the first, 94.3% for the second.

Compared with `C[C@H](O)C(=O)N1CCC(n2cc(-c3cnc(N)c(-c4nc5ccccc5o4)c3)c(CO)n2)CC1` [Example 67.2], `CNC(=O)c1nn(C2CCNCC2)cc1-c1cnc(N)c(-c2nc3ccccc3o2)c1` [Example 62.4] is lower in “% Axl tyrosine kinase inhibition” value: 100.0% for the first, 99.8% for the second.

Going from `COCC1CC(Oc2ccc(-c3cnc(N)c(-c4nc5ncccc5o4)c3)cc2OC)CN1` (stereo not drawn) [Example 43C.36] to `COc1cc(-c2cnc(N)c(-c3nc4ncccc4o3)c2)ccc1OCCN1CCNCC1` [Example 43C.25], the “% Axl tyrosine kinase inhibition” value falls from 99.8% to 99.5%.

First: CN(C)CCCCNC(=O)c1ccc(-c2cnc(N)c(-c3nc4cccnc4o3)c2)cc1 [Example 45A.2]
Second: CN(C)CCNC(=O)c1cccc(-c2cnc(N)c(-c3nc4cccnc4o3)c2)c1 [Example 9A.5]
The “% Axl tyrosine kinase inhibition” value of the first is higher: 96.6% for the first, 75.2% for the second.

First: Nc1ncc(-c2ccc(OCCCN3CCS(=O)(=O)CC3)cc2)cc1-c1nc2ncccc2o1 [Example 43B.16]
Second: COc1cc(-c2cnc(N)c(-c3nc4ncccc4o3)c2)ccc1OCCCN1CCS(=O)(=O)CC1 [Example 43C.16]
The “% Axl tyrosine kinase inhibition” value of the first is lower: 95.3% for the first, 98.1% for the second.

First: Nc1ncc(-c2cccc(-c3ccn[nH]3)c2)cc1-c1nc2cnccc2o1 [Example 8A.28]
Second: CC(=O)Nc1cccc(-c2cnc(N)c(-c3nc4ccccc4o3)c2)c1 [Example 2.20]
The “% Axl tyrosine kinase inhibition” value of the first is lower: 97.5% for the first, 97.6% for the second.

Compared with `COCc1ccccc1-c1cnc(N)c(-c2nc3ccccc3o2)c1` [Example 2.36], `CS(=O)(=O)c1cccc(-c2cnc(N)c(-c3nc4ccccc4o3)c2)c1` [Example 2.48] is lower in “% Axl tyrosine kinase inhibition” value: 98.5% for the first, 97.1% for the second.

First: Nc1ncc(-c2cnn(C3CCCNC3)c2)cc1-c1nc2ccccc2o1 (stereo not drawn) [Example 29.6]
Second: Nc1ncc(-c2cnn(C3CNC3)c2)cc1-c1nc2ccccc2o1 [Example 29.2]
The “% Axl tyrosine kinase inhibition” value of the first is higher: 99.9% for the first, 99.8% for the second.

Going from `CN1CCC(N(C)C(=O)c2ccc(-c3cnc(N)c(-c4nc5cccnc5o4)c3)cc2)CC1` [Example 45A.31] to `CN(C)C1CCC(NC(=O)c2ccc(-c3cnc(N)c(-c4nc5cccnc5o4)c3)cc2)CC1` (stereo not drawn) [Example 45A.24], the “% Axl tyrosine kinase inhibition” value falls from 95.9% to 95.8%.

Compared with `NCc1ccc(-c2cnc(N)c(-c3nc4ncccc4o3)c2)cc1` [Example 10A.4], `Nc1ncc(-c2cccc(C(=O)NCCN3CCCC3)c2)cc1-c1nc2ncccc2o1` [Example 10A.9] is lower in “% Axl tyrosine kinase inhibition” value: 99.0% for the first, 82.5% for the second.

Going from `Cc1nn(C2CCNCC2)cc1-c1cnc(N)c(-c2nc3ncccc3o2)c1` [Example 25.16] to `Nc1ncc(-c2cnn(C3CCN(C(=O)CO)CC3)c2)cc1-c1nc2cccnc2o1` [Example 57.6], the “% Axl tyrosine kinase inhibition” value falls from 99.9% to 99.8%.

First: Nc1ncc(-c2cccc(C(=O)NC3CC3)c2)cc1-c1nc2ccncc2o1 [Example 11A.7]
Second: Nc1ncc(-c2cccc(CN3CCCC3)c2)cc1-c1nc2cccnc2o1 [Example 9A.8]
The “% Axl tyrosine kinase inhibition” value of the first is lower: 80.3% for the first, 96.5% for the second.

`Nc1ncc(-c2ccc(OCCN3CCOCC3)cc2)cc1-c1nc2cccnc2o1` [Example 43A.2] was tested, and the “% Axl tyrosine kinase inhibition” value was 97.2%.

`Nc1ncc(-c2ccc(OCCN3CCCCC3)cc2)cc1-c1nc2ncccc2o1` [Example 43B.8] was tested, and the “% Axl tyrosine kinase inhibition” value was 19.0^††† %.
In the case of `Cc1ccc(S(=O)(=O)N2CCOCC2)cc1-c1cnc(N)c(-c2nc3cnccc3o2)c1` [Example 8A.10], the “% Axl tyrosine kinase inhibition” value was 13.1***** %.

same assay, conditions: test compound at 1 μM; first value quoted; read-out: % Axl tyrosine kinase inhibition at 1 μM concentration

Going from `Nc1ncc(-c2cccc(S(=O)(=O)CCC3CCNCC3)c2)cc1-c1nc2ccccc2o1` [Example 46, 3-(1,3-Benzoxazol-2-yl)-5-[3-[2-(4-piperidyl)ethylsulphonyl]phenyl]pyridin-2-amine] to `CN(C)Cc1ccc(-c2cnc(N)c(-c3nc4ccccc4o3)c2)cc1` [Example 1, 3-Benzoxazol-2-yl-5-[4-(dimethylaminomethyl)phenyl]pyridin-2-amine], the inhibition at 1 µM rises from 95.9% to 99.8%.

First: COc1ccc2oc(-c3cc(-c4cnn(C5CCN(C)CC5)c4)cnc3N)nc2c1 [Example 35A, 3-(5-methoxy-1,3-benzoxazol-2-yl)-5-[1-(1-methyl-4-piperidyl)pyrazol-4-yl]pyridin-2-amine]
Second: Nc1ncc(-c2cnn(C3CCNCC3)c2)cc1-c1nc2ncccc2o1 [Example 10, 3-Oxazolo[4,5-b]pyridin-2-yl-5-[1-(4-piperidyl)pyrazol-4-yl]pyridin-2-amine]
The inhibition at 1 µM of the first is higher: 100% for the first, 98.8% for the second.

In the case of `CN1CCN(CCn2cc(-c3cnc(N)c(-c4nc5ccccc5o4)c3)cn2)CC1` [Example 30, 3-(1,3-benzoxazol-2-yl)-5-[1-[2-(4-methylpiperazin-1-yl)ethyl]pyrazol-4-yl]pyridin-2-amine], the inhibition at 1 µM was 99.8%.

same assay, conditions: test compound at 30 μM

In the case of `Nc1ncc(-c2ccc(OCCN3CCCCC3)cc2)cc1-c1nc2ncccc2o1` [Example 43B.8], the “% of Axl tyrosine kinase activity inhibited at a concentration of 30 μM” value was “^†††the compound disclosed in Example 43B.8 inhibited 98% of Axl tyrosine kinase activity at a concentration of 30 μM”.
In the case of `Cc1ccc(S(=O)(=O)N2CCOCC2)cc1-c1cnc(N)c(-c2nc3cnccc3o2)c1` [Example 8A.10], the “% of Axl tyrosine kinase activity inhibited at a concentration of 30 μM” value was “*****the compound disclosed in Example 8A.10 inhibited 79.5% of Axl tyrosine kinase activity at a concentration of 30 μM”.
